Series [1] relates to Mycobacterium tuberculosis. The experiment in a line: Antituberculosis activity against Mycobacterium tuberculosis H37Rv. The series is classed as functional, organism-based.
Series [2] in a line: Selectivity index, ratio of EC50 for african green monkey Vero cells to IC90 for Mycobacterium tuberculosis H37Rv. The series is classed as toxicity. Conditions: read-out: Selectivity Index.
A short description of series [3]: Cytotoxicity against African green monkey Vero cells. Format: toxicity, cell-based. Particulars: African green monkey (Chlorocebus sabaeus).
A short description of series [4]: Biodistribution in C57BL/6 mouse blood at 25 mg/kg, po administered as single dose and measured after 2 hrs by HPLC based UV-Visble detector method. Format: ADME, organism-based. Particulars: read-out: Drug uptake.
Series [5] can be described thus: Biodistribution in C57BL/6 mouse liver at 25 mg/kg, po administered as single dose and measured after 24 hrs by HPLC based UV-Visble detector method. Conditions: in vivo. The series is classed as ADME, organism-based.
For the next series, the system named is BMDM. The experiment in a line: Cytotoxicity against mouse BMDMs at 2 to 10 times MIC incubated for 24 hrs by MTS assay. The series is classed as toxicity, cell-based. For orientation: Tetrazolium assays rely on reduction of a dye to a coloured formazan, in cell work by metabolically active cells.
The subject of series [6] is Mycobacterium tuberculosis. The experiment in a line: Antimycobacterial activity against Mycobacterium tuberculosis H37Rv infected in C57BL/6 mouse assessed as reduction in lung bacterial burden at 25 mg/kg, po pre-infected for 24 hrs followed by compound addition for 6 days per week and measured on day 18 and 36. Conditions: time 18-36 day. Format: functional, organism-based.

Series [7] can be described thus: Biodistribution in C57BL/6 mouse liver at 25 mg/kg, po administered as single dose and measured after 2 hrs by HPLC based UV-Visble detector method. The series is classed as ADME, organism-based. Particulars: read-out: Drug uptake.
Series [8] is described as follows: Biodistribution in C57BL/6 mouse lung at 25 mg/kg, po administered as single dose and measured after 48 hrs by HPLC based UV-Visble detector method. The series is classed as ADME, organism-based. Conditions: read-out: Drug uptake.
In series [9] the test system is Mycobacterium tuberculosis. The experiment in a line: Antimycobacterial activity against Mycobacterium tuberculosis H37Rv infected in C57BL/6 mouse assessed as reduction in liver bacterial burden at 25 mg/kg, po pre-infected for 24 hrs followed by compound addition for 6 days per week and measured on day 18. The series is classed as functional, organism-based. Particulars: time 18.0 day.

Series [10] in a line: Biodistribution in C57BL/6 mouse liver at 25 mg/kg, po administered as single dose and measured after 6 hrs by HPLC based UV-Visble detector method. The series is classed as ADME, organism-based. Particulars: read-out: Drug uptake.
Series [11] deals with Mycobacterium tuberculosis. Briefly: Antituberculosis activity against Mycobacterium tuberculosis H37Rv infected in macrophage assessed as reduction in bacterial load at 2 times IC90 incubated for 3 days. Particulars: time 3.0 day. Format: functional, organism-based.
Series [12] is described as follows: Biodistribution in C57BL/6 mouse lung at 25 mg/kg, po administered as single dose and measured after 24 hrs by HPLC based UV-Visble detector method. Particulars: read-out: Drug uptake. Format: ADME, organism-based.
Series [13] can be described thus: Biodistribution in C57BL/6 mouse blood at 25 mg/kg, po administered as single dose and measured after 6 hrs by HPLC based UV-Visble detector method. Particulars: read-out: Drug uptake. The series is classed as ADME, organism-based.
In series [14] the test system is Mycobacterium tuberculosis. The experiment in a line: Antituberculosis activity against Mycobacterium tuberculosis H37Rv infected in macrophage assessed as reduction in bacterial load at 10 times IC90 incubated for 3 days. The series is classed as functional, organism-based. Conditions: time 3.0 day.

Values after ≈ are worked out from the molar mass of the structure shown. Active and inactive are the calls of the source. No cut-off for these calls is given here. Some results are limits rather than exact numbers.

As usually defined, the IC50 is the concentration at which inhibition is half-maximal. A word on the IC90: it is the concentration at which the effect reaches the 90% level. What is called EC50 is the concentration giving half of the maximal effect.

Turning to `Cc1ccc(-n2cnc3c(C(N)=O)nc(-c4cccc(O)c4)nc32)cc1`, in series [1], the IC50 is more than 100 µg/mL and the IC90 was more than 100 µg/mL.

Consider `N#Cc1ccc(-n2cnc3c(C(N)=O)nc(-c4ccc(O)cc4)nc32)cc1`, for which, in series [1], the IC50 was more than 100 µg/mL and the concentration for an effect of 90% (IC90) is more than 100 µg/mL.

In the case of `COc1ccc2cc(-c3nc(C(N)=O)c4ncn(-c5ccccc5)c4n3)ccc2c1`, in [1], the IC50 is more than 100 µg/mL and the IC90 was more than 100 µg/mL.

Regarding `NC(=O)c1nc(-c2ccc(O)cc2)nc2c1ncn2-c1ccccc1`, in [1], the half-inhibitory concentration (IC50) turned out to be 0.7 µg/mL (≈ 2.11 µM) and it took 1.2 µg/mL (≈ 3.62 µM) to reach the 90% level (IC90). In addition, the selectivity ratio in series [2] is more than 25.5. This compound also showed an EC50 in series [3] of more than 30 µg/mL.

As for `Cn1cnc2c(C(N)=O)nc(-c3cccc(O)c3)nc21`, in [1], the IC50 was more than 100 µg/mL and the IC90 was more than 100 µg/mL.

In series [1], `Cc1ccc(-n2cnc3c(C(N)=O)nc(-c4ccccc4O)nc32)cc1` yielded an IC50 of more than 100 µg/mL and an IC90 of more than 100 µg/mL.

Consider `NC(=O)c1nc(-c2ccccc2O)nc2c1ncn2-c1ccccc1`, for which, in [1], the IC50 is more than 100 µg/mL and the IC90 is more than 100 µg/mL.

In [1], `NC(=O)c1nc(-c2ccc(Oc3ccc(Cl)cc3)cc2)nc2c1ncn2-c1ccccc1` registered an IC50 of 2.69 µg/mL (≈ 6.09 µM) and an IC90 of 3.09 µg/mL (≈ 6.99 µM). Also, the selectivity ratio in series [2] is 4.11. The compound further showed an EC50 in [3] of 12.7 µg/mL (≈ 28.7 µM).

Regarding `Cn1cnc2c(C(N)=O)nc(-c3ccccc3O)nc21`, in [1], the 50% inhibitory concentration (IC50) was more than 100 µg/mL and the IC90 is more than 100 µg/mL.

For `COc1ccc(-c2nc(C(N)=O)c3ncn(-c4ccccc4)c3n2)cc1`, the figures for the concentration at 2 h in series [4] and in [7] were 630 ng/g and 4800 ng/g, respectively. Besides, in [5], the Drug uptake result is listed as “Not Active”. Besides, the Activity entry with BMDM is recorded as “Non-Toxic”. In addition, the result in series [6], in [9], in [11] and in series [14] was Active. The compound also yielded a half-maximal inhibitory concentration (IC50) in series [1] of less than 0.1 µg/mL. This compound also registered an IC90 in series [1] of less than 0.19 µg/mL. Besides, in series [2], the selectivity ratio was more than 154. Also, the concentration at 48 h in series [8] stood at 1210 ng/g. The concentration at 6 h in series [10] worked out at 1460 ng/g; in series [13] it was 2160 ng/g. Moreover, the concentration at 24 h in [12] is 4030 ng/g. This compound also displayed an EC50 in series [3] of more than 30 µg/mL.

For the compound `COc1ccc(-n2cnc3c(C(N)=O)nc(-c4ccc(O)cc4)nc32)cc1`, in series [1], the IC50 is more than 100 µg/mL and the concentration for an effect of 90% (IC90) was more than 100 µg/mL.

In [1], `NC(=O)c1nc(-c2ccc(OC(F)(F)F)cc2)nc2c1ncn2-c1ccccc1` returned an IC50 of more than 100 µg/mL and a concentration for an effect of 90% (IC90) of more than 100 µg/mL.

For `NC(=O)c1nc(-c2ccc(C(F)(F)F)cc2)nc2c1ncn2-c1ccccc1`, in series [1], the IC50 was more than 100 µg/mL and the IC90 is more than 100 µg/mL.

Regarding `COc1ccc(-n2cnc3c(C(N)=O)nc(-c4ccccc4O)nc32)cc1`, in [1], the IC50 is more than 100 µg/mL and the IC90 was more than 100 µg/mL.

In [1], `NC(=O)c1nc(-c2ccccc2O)nc2c1ncn2Cc1ccccc1` gave an IC50 of more than 100 µg/mL and a concentration for an effect of 90% (IC90) of more than 100 µg/mL.

Regarding `N#Cc1ccc(-n2cnc3c(C(N)=O)nc(-c4ccccc4O)nc32)cc1`, in series [1], the IC50 was more than 100 µg/mL and the IC90 was more than 100 µg/mL.

`NC(=O)c1nc(-c2cccc(O)c2)nc2c1ncn2-c1ccccc1`: in series [1], the IC50 is more than 100 µg/mL and the IC90 was more than 100 µg/mL.

In [1], `CC(C)(C)Oc1ccc(-c2nc(C(N)=O)c3ncn(-c4ccccc4)c3n2)cc1` had an IC50 of more than 100 µg/mL and a concentration for an effect of 90% (IC90) of more than 100 µg/mL.

Turning to `COc1ccc(-n2cnc3c(C(N)=O)nc(-c4cccc(O)c4)nc32)cc1`, in series [1], the IC50 was more than 100 µg/mL and the concentration for an effect of 90% (IC90) is more than 100 µg/mL.

In [1], `Cn1cnc2c(C(N)=O)nc(-c3ccc(O)cc3)nc21` returned an IC50 of 25.8 µg/mL (≈ 95.8 µM) and an IC90 of 47.8 µg/mL (≈ 178 µM).

As to `N#Cc1ccc(-n2cnc3c(C(N)=O)nc(-c4cccc(O)c4)nc32)cc1`, in series [1], the IC50 is 38.5 µg/mL (≈ 108 µM) and the IC90 was more than 100 µg/mL.

In [1], `CCOc1ccc(-c2nc(C(N)=O)c3ncn(-c4ccccc4)c3n2)cc1` came in with an IC50 of 1.44 µg/mL (≈ 4.01 µM) and an IC90 of 1.65 µg/mL (≈ 4.59 µM). For the same compound, the selectivity ratio in [2] was determined as 7.85. Also, in series [3], the EC50 stood at 12.9 µg/mL (≈ 35.9 µM).

In series [1], `NC(=O)c1nc(-c2ccc(O)cc2)nc2c1ncn2Cc1ccccc1` returned an IC50 of more than 100 µg/mL and an IC90 of more than 100 µg/mL.

Take `CCc1ccc(-c2nc(C(N)=O)c3ncn(-c4ccccc4)c3n2)cc1`: in [1], the IC50 is more than 100 µg/mL and the concentration for an effect of 90% (IC90) is more than 100 µg/mL.

In series [1], `NC(=O)c1nc(-c2ccc(N3CCOCC3)cc2)nc2c1ncn2-c1ccccc1` returned an IC50 of more than 100 µg/mL and an IC90 of more than 100 µg/mL.

Take `CN(C)c1ccc(-c2nc(C(N)=O)c3ncn(-c4ccccc4)c3n2)cc1`: in [1], the IC50 is 1.38 µg/mL (≈ 3.85 µM) and the IC90 turned out to be 1.67 µg/mL (≈ 4.66 µM). The selectivity ratio in [2] is more than 23.9. In addition, the EC50 in [3] was more than 40 µg/mL.

As for `COc1ccc(-c2nc(C(N)=O)c3ncn(-c4ccccc4)c3n2)c2ccccc12`, in series [1], the IC50 is more than 100 µg/mL and the IC90 was more than 100 µg/mL.

In the case of `Cc1ccc(-n2cnc3c(C(N)=O)nc(-c4ccc(O)cc4)nc32)cc1`, in [1], the IC50 worked out at 19.2 µg/mL (≈ 55.6 µM) and the IC90 was more than 100 µg/mL.

(Values after ChEMBL document CHEMBL5506006, “Discovery of 2,9-diaryl-6-carbamoylpurines as a novel class of antitubercular agents” (Eur J Med Chem, 2024).)
